Data: paper PMC12508057, “Discovery of ETI41 and ETI60: novel selective endosomal Toll-like receptor inhibitors for the treatment of autoimmune diseases” (Experimental & Molecular Medicine, 2025)

Legend:
Assay type in all cases: cell-based
TLR9 = biological target: T1, TLR9 (Mus musculus, UniProt Q9EQU3); assay: TLR9 inhibition, TNF-α secretion (ELISA) in RAW 264.7; conditions: RAW 264.7 cell line; read-out: TLR9 IC50 (mTNFα)
T1 construct: endogenous in cells; host or cells: RAW 264.7
T1 sequence (Q9EQU3 26-1032): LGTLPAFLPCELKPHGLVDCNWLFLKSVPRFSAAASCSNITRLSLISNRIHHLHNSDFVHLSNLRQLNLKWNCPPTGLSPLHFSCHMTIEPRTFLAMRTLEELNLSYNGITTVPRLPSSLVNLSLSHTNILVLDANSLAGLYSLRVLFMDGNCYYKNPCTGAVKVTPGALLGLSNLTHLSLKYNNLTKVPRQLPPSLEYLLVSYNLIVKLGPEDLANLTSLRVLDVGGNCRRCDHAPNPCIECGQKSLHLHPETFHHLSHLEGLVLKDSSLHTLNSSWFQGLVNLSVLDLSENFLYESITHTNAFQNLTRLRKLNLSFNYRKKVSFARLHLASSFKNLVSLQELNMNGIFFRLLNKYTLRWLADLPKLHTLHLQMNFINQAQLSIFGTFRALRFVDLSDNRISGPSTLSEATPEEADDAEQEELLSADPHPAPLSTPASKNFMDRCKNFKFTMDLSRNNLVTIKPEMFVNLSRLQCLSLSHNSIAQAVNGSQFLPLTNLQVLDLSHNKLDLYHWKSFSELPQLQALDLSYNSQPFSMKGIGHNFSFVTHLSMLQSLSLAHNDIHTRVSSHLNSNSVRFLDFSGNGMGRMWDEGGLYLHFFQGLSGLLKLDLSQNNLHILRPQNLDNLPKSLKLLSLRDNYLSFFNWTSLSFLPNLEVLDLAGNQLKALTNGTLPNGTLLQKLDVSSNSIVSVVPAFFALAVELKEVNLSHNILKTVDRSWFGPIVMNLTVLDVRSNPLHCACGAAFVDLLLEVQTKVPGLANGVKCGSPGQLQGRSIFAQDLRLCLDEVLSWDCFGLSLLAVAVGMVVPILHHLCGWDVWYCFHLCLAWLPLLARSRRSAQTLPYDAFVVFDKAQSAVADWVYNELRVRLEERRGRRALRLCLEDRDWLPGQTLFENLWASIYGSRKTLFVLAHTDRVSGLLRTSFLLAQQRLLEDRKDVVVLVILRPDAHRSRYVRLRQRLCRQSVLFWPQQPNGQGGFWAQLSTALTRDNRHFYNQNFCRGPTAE
Procedure: (§1) RAW 264.7 and differentiated THP-1 cells were seeded into 96-well plates at 2 × 10^4 cells per well, while Daudi cells were seeded at 5 × 10^4 cells per well. After stabilization for 30 min, cells were stimulated with specific TLR agonists for 4 or 24 h. Supernatants were diluted and transferred to precoated ELISA plates to measure TNF-α secretion using kits from Invitrogen. Optical absorbance was measured using a BioTek Synergy HTX multimode microplate reader, and data were interpolated using BioTek Gen5 software.
(§2) One-tailed paired Student’s t-tests were performed using Microsoft Excel (Microsoft). Semi-logarithmic conversions and nonregression curve analyses for calculating 50% lethal concentration (LC50) and 50% inhibitory concentration (IC50) values were conducted using GraphPad Prism 7.0 (GraphPad). The therapeutic index was calculated as […]. Animal experimental results are expressed as mean ± standard deviation and analyzed using SPSS v.20 (IBM SPSS Statistics). Homogeneity of variance was assessed using Levene’s test.
(§3) The cells were activated with agonistic ligands: […], TLR3 (poly I:C, 2 μg/ml, 24 h), TLR4 (LPS, 10 or 100 ng/ml, 4 h), TLR5 (FLA-ST, 500 ng/ml, 4 h), TLR7 (ORN06/LyoVec, 2 μg/ml, 24 h; and IMQ, 1 μg/ml, 4 h), TLR8 (TL8-506, 2 μg/ml, 24 h) and TLR9 (ODN2395, 1 μM, 4 h) at various concentrations in RAW 264.7 cells, human Daudi cells and THP-1 cells. Data are from at least three independent experiments (n = 3) and statistical differences between the induced case and other cases were analyzed and verified using a one-tailed Student’s t-test (*P < 0.05, **P < 0.01, ***P < 0.001).

[1] = MTT assay, cell survival in RAW 264.7; conditions: mouse, RAW 264.7 cells, RAW 264.7 cell line, read-out: LC50
Procedure: After 24 h, the supernatant was removed, and 500 μg/ml of 3-[4,5-dimethylthiazol-2-yl]-2,5 diphenyl tetrazolium bromide (MTT) solution (Invivogen) was added. After a 3 h incubation, the supernatant was removed, and DMSO was added to dissolve the formazan dye.
One-tailed paired Student’s t-tests were performed using Microsoft Excel (Microsoft). […] The therapeutic index was calculated as […]. Animal experimental results are expressed as mean ± standard deviation and analyzed using SPSS v.20 (IBM SPSS Statistics). Homogeneity of variance was assessed using Levene’s test.
Data are from at least three independent experiments (n = 3) and statistical differences between the induced case and other cases were analyzed and verified using a one-tailed Student’s t-test (*P < 0.05, **P < 0.01, ***P < 0.001).

TLR7 = biological target: T2, TLR7 (Mus musculus, UniProt P58681); assay: TLR7 inhibition, TNF-α secretion (ELISA) in RAW 264.7
T2 construct: endogenous in cells; host or cells: RAW 264.7
T2 sequence (P58681 27-1050): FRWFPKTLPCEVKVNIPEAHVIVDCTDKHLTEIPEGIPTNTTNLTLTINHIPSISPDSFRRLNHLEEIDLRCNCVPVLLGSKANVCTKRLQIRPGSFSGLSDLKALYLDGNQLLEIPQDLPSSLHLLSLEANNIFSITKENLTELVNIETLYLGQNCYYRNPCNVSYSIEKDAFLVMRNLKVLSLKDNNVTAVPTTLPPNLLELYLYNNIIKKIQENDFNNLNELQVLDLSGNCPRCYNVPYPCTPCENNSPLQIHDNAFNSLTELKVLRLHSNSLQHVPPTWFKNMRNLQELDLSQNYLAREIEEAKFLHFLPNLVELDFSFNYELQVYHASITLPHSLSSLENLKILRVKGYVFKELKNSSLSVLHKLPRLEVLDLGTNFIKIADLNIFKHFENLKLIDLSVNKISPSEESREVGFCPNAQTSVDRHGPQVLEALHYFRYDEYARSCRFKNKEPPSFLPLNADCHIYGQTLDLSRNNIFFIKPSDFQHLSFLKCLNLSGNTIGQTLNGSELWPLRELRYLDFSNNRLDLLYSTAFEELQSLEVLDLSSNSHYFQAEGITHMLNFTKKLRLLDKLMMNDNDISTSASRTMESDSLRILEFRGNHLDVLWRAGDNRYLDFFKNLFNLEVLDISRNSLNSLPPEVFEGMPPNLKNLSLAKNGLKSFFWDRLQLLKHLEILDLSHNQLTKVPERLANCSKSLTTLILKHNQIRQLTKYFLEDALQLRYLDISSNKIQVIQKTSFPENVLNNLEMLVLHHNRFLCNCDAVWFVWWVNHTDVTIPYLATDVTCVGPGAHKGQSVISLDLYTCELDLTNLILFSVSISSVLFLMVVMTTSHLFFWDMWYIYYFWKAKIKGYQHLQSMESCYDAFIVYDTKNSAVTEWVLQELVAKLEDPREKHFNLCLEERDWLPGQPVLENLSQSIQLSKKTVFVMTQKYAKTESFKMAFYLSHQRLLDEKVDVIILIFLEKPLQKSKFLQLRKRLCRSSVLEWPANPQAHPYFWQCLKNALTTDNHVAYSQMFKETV
Procedure: as §1, §2, §3

endosomal TLRs = assay: Endosomal TLR-mediated TNF-α production, summary over cell lines; conditions: dose-dependent, without inducing cytotoxic effects
Procedure: as §1
TLR activation triggers the NF-κB pathway, resulting in increased production of pro-inflammatory cytokines, such as TNF-α and IL-6.

SMILES: Cc1c(C)n(CCCN(C)C)c2nc3c(c(N)c12)CCCCC3 [ETI15, 1-(3-(dimethylamino)propyl)-2,3-dimethyl-1,5,6,7,8,9-hexahydrocyclohepta[b]pyrrolo[3,2-e]pyridin-4-amine]
- IC50 (TLR9): 360 nM
- CC50 at 24 h [1]: 67.9 µM
- IC50 (TLR7; RAW 264.7 cell line, read-out: TLR7 IC50 (mTNFα)): 2810 nM
- TLR7 TI value (TLR7; therapeutic index, RAW 264.7): 24.16
- TNF-α production by RAW 264.7 and Daudi cells (endosomal TLRs): effectively inhibited
